Measured values as given in ChEMBL document CHEMBL1201862, “PubChem BioAssay data set” (2004).
Activity calls are given as the source filed them.

Columns and labels:
P388/ADR = test: cells; type: functional; settings: Mus musculus
SN12K1 = test: cells; type: functional; settings: Homo sapiens
P388 = test: cells; type: functional; settings: Mus musculus
BJ [1] = test: BJ-TERT fibroblast viability loss – cell-based, RAS-independent, luminescence, dose response (AID 1933); type: functional; settings: Homo sapiens
BJ [2] = test: cells; type: functional, cell-based; settings: Homo sapiens
BJ [3] = test: BJ-TERT-LT-ST fibroblast viability loss – cell-based, RAS-independent, luminescence, dose response (AID 1935); type: functional; settings: Homo sapiens;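 further: BJ fibroblasts immortalized with TERT plus LT and ST oncogenes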
[4] = DRD fibroblast viability loss – cell-based, non-viral oncogenic, luminescence, dose response (AID 1934); type: functional; settings: Homo sapiens
[5] = HEK-293T viability loss after treatment – luminescence, T-cell screen hits, cytotoxicity control for TCR NF-kB inhibitor project, dose response (AID 489026); type: functional, cell-based;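 further: cells exposed to compound about 14 hours before the viability readout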
Cytochrome P450 2C9 = Cytochrome P450 2C9 (Homo sapiens, UniProt P11712)
Cytochrome P450 2C19 = Cytochrome P450 2C19 (Homo sapiens, UniProt P33261); test: Cytochrome panel assay with activity outcomes. Panel member name: p450-cyp2c19 Compounds with AC50 equal or less than 10 uM are considered active; type: functional
Cytochrome P450 2D6 = Cytochrome P450 2D6 (Homo sapiens, UniProt P10635);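 further: CYP2D6 member of a cytochrome P450 panel assay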
Cytochrome P450 3A4 = Cytochrome P450 3A4 (Homo sapiens, UniProt P08684);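 further: CYP3A4 tested as one member of a cytochrome P450 panel screen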
Cytochrome P450 1A2 = biological target: T1, Cytochrome P450 1A2 (Homo sapiens, UniProt P05177);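 further: PubChem cytochrome P450 panel assay, CYP1A2 panel member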
T1 sequence (P05177 whole entry): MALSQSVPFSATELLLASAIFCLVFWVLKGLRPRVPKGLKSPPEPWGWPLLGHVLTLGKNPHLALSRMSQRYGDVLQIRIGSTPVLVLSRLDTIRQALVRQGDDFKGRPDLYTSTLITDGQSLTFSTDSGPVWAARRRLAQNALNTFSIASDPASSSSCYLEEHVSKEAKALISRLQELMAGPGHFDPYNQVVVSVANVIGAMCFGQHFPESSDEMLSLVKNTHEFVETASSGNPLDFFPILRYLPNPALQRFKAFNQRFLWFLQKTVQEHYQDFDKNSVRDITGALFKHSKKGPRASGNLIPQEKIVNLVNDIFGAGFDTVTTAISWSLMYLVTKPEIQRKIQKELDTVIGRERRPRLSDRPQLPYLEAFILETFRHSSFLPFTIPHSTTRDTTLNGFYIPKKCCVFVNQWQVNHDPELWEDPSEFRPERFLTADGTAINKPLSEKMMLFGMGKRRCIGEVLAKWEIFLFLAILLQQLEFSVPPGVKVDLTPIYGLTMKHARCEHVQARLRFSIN

[6] = biological target: T2, High affinity choline transporter 1 (Homo sapiens, UniProt Q9GZV3); test: human choline transporter blockers, potency – cell-based, 5-point CRC, membrane potential dye, dose response (AID 504840); type: functional
T2 sequence (Q9GZV3 whole entry): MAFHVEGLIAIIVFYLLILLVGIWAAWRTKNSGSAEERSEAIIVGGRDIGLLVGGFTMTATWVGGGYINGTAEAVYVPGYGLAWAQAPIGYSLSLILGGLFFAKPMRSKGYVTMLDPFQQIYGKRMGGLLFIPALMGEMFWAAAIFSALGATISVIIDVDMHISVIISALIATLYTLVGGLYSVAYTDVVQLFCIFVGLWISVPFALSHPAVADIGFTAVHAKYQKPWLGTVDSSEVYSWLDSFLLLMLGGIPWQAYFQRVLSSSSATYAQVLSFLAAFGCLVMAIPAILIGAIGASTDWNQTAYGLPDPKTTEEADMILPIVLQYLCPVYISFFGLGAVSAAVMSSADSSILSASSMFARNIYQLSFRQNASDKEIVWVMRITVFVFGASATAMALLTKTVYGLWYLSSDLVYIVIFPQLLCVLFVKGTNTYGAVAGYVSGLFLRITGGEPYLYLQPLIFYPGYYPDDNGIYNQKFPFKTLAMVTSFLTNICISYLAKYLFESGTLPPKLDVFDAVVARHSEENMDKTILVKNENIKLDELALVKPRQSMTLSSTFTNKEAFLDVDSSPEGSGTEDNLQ

[7] = biological target: T3, Calpain-2 catalytic subunit (Sus scrofa, UniProt P43367); test: m-calpain protease blockers, concentration series – biochemical, fluorogenic peptide substrate, dose response (AID 1420); type: functional
T3 sequence (P43367 whole entry): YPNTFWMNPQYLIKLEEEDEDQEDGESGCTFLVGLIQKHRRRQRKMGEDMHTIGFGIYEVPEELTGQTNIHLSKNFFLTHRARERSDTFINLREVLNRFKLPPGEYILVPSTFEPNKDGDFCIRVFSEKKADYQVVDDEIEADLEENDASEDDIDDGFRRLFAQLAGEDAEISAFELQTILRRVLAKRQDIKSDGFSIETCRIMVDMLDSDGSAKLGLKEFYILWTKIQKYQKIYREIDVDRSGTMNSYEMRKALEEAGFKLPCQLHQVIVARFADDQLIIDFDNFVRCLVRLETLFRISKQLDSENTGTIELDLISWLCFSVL

[8] = Luminescence Cell-Based Dose Retest to Confirm Inhibitors of Cancer Stem Cells. [Related pubchem assays (depositor defined):AID2717, AID2721]; type: functional; settings: Homo sapiens
[9] = biological target: Heat shock protein HSP 90-alpha (Homo sapiens, UniProt P07900); type: functional, organism-based
Large T antigen = Large T antigen (Simian virus 40, UniProt P03070); type: functional, Betapolyomavirus macacae;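 further: Confirmatory-stage PubChem screen for compounds that inhibit SV40 T antigen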
Large T antigen, sequence (P03070 whole entry): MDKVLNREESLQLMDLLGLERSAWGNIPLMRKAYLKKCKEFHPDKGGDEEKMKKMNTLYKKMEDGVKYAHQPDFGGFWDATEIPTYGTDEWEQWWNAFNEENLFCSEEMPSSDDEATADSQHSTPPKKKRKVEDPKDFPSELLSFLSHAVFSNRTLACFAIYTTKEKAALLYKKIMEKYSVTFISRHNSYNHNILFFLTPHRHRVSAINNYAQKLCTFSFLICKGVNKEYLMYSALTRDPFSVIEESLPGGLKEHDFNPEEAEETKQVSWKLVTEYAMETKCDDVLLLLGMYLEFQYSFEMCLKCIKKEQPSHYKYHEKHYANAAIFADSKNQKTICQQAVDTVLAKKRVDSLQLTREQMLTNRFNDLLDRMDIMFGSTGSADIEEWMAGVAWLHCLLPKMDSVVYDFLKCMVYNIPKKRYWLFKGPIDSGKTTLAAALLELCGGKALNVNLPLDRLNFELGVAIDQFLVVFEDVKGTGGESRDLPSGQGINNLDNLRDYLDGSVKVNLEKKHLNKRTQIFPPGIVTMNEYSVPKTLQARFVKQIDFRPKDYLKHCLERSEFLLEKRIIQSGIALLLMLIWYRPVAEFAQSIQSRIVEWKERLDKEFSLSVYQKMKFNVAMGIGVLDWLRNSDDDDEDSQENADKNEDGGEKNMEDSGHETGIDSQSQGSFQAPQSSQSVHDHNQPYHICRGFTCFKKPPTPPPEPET

Cytochrome P450 2C19, sequence (P33261 whole entry): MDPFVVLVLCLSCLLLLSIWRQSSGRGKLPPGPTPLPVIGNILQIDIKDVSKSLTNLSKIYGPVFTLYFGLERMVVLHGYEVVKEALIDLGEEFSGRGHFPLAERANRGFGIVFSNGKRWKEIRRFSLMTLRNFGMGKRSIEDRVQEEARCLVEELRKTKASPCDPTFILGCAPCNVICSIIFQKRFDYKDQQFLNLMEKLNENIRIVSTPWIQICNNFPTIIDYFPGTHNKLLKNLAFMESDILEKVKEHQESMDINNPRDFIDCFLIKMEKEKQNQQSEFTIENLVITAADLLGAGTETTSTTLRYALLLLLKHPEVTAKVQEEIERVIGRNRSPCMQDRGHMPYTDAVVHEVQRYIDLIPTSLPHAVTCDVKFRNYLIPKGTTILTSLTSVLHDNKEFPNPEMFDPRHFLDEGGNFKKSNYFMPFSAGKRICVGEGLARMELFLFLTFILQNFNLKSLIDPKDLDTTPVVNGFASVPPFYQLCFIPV
Cytochrome P450 2C9, sequence (P11712 whole entry): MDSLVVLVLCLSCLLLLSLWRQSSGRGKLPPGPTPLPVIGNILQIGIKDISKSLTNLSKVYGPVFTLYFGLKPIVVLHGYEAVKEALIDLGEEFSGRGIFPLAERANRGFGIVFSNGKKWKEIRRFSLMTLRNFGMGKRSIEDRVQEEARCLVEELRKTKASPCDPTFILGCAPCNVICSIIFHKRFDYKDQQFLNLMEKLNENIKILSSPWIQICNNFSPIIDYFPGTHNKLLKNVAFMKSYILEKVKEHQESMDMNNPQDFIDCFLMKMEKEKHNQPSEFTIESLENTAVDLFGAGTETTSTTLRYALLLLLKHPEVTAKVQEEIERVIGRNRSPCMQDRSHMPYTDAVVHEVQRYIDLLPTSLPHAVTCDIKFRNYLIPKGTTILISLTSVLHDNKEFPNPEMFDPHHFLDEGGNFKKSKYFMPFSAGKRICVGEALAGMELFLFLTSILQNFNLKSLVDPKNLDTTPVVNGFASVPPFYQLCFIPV
Cytochrome P450 3A4, sequence (P08684 whole entry): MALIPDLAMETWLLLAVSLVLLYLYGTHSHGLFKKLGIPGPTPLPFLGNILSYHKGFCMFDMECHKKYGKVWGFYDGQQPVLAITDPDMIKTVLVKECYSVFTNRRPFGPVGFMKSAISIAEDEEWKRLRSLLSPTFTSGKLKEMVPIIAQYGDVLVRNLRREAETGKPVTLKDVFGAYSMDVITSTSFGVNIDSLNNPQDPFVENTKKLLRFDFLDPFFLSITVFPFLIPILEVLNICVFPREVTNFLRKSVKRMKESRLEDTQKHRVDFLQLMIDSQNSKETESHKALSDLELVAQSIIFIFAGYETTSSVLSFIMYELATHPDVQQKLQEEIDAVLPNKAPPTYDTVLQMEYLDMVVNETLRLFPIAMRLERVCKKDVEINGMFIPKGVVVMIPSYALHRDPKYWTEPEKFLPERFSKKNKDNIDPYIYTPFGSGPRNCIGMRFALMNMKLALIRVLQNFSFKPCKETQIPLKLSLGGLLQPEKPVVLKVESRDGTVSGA
Cytochrome P450 2D6, sequence (P10635 whole entry): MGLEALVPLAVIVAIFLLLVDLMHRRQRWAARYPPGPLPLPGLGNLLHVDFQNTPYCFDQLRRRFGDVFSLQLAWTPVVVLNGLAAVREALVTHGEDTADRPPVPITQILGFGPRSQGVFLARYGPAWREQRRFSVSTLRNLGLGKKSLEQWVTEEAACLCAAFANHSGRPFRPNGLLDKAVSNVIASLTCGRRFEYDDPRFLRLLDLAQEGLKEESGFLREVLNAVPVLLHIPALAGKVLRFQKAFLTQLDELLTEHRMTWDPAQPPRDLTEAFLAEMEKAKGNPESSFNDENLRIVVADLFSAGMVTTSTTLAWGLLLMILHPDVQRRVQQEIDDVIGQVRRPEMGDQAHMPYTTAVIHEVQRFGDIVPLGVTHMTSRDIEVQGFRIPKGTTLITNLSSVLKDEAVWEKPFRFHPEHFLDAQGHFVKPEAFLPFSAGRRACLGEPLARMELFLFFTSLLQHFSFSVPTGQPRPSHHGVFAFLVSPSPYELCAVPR

O=NN(CCF)C(=O)NC1CCSCC1
GI50 (P388/ADR): > 100 µM (inactive) | GI50 (SN12K1): > 100 µM (inactive) | GI50 (P388): > 100 µM (inactive)

Cc1ccc(C(=O)c2cc([N+](=O)[O-])ccc2N2CCOCC2)cc1C
EC50 (BJ [1]): 3.06 µM (active) | EC50 (BJ [2]): 73.8 µM (inconclusive) | EC50 (BJ [3]): 1.75 µM (active) | EC50 [4]: 1.6 µM (inconclusive) | IC50 [5]: > 80 µM (inactive)

CSc1ccccc1N1CCN(C(=O)Nc2ccc3c(c2)NC(=O)CO3)CC1
AC50 (Cytochrome P450 2C9): inconclusive

C[C@@H](COc1ccc(/C=C\c2ccccc2)cc1)[N+](C)(C)C
AC50 (Cytochrome P450 2C19): inconclusive | AC50 (Cytochrome P450 2D6): 3.16 µM (inconclusive) | AC50 (Cytochrome P450 3A4): 10 µM (inconclusive) | AC50 (Cytochrome P450 2C9): inconclusive

COCCNC(=O)c1cc(-c2cccc(OC)c2)on1
AC50 (Cytochrome P450 2C19; read-out: AC50): 28.2 µM (inconclusive) | AC50 (Cytochrome P450 2C9): inconclusive

CCOc1cc(C#N)c(NC(=O)c2cccnc2)cc1OCC
IC50 [5]: > 80 µM (inactive) | AC50 (Cytochrome P450 2C9): inconclusive

COc1ccc(C2=NOC(C(=O)NCc3ccco3)C2)cc1OC (stereo not given)
AC50 (Cytochrome P450 2C19): inconclusive | AC50 (Cytochrome P450 1A2): 39.8 µM (inconclusive) | AC50 (Cytochrome P450 2C9): inconclusive

O=C(NNC(=S)Nc1ccccc1)c1cc(Br)ccc1Cl
IC50 [6]: 12.6 µM (active)

CCc1ccccc1NC(=O)c1nnn(CC(=O)Nc2ccccc2C)c1N
AC50 (Cytochrome P450 3A4): 25.1 µM (inconclusive) | AC50 (Cytochrome P450 2C9): inconclusive

O=C1C2CCCCC2C(=O)N1c1ccc(NC2CCN(Cc3ccccc3)CC2)c([N+](=O)[O-])c1 (stereo not given)
IC50 [7]: > 50 µM (not active)

CC(C)Oc1ccc(C(=O)/C=C2/C(=O)Nc3ccccc32)cc1
AC50 [8]: 4.39 µM (active) | AC50 [9]: 1.94 µM (active)

O=C(O)/C(=C\c1ccccc1OC(F)F)Sc1nnc(-c2ccc(F)cc2)o1
IC50 [6]: 19.1 µM (active)

Cc1ccc2c(c1)N(CCC(=O)N1CCC3(CC1)OCCO3)C(=O)C(C)O2 (stereo not given)
AC50 (Cytochrome P450 1A2): 0.00631 µM (inconclusive) | AC50 (Cytochrome P450 2C9): inconclusive

COc1cccc(NC(S)=Nc2ccc(O)cc2)c1
IC50 (Large T antigen): 5.64 µM (active)

COc1nc(O)c(N)c(NC2OC(CO)C(O)C(O)C2O)n1 (stereo not given)
GI50 (P388/ADR): 38.5 µM (inactive) | GI50 (SN12K1): > 100 µM (inactive) | GI50 (P388): 13.3 µM (inactive)

CCC(C(C)N1CC(=O)NC(=O)C1)N1CC(=O)NC(=O)C1 (stereo not given)
GI50 (P388/ADR): 6.12 µM (inactive) | GI50 (P388): < 0.0316 µM (active)

CCCCSCC(NC(=O)/C=C/c1c(C)[nH]c(=O)[nH]c1=O)C(=O)OC (stereo not given)
GI50 (P388/ADR): 141 µM (inactive) | GI50 (SN12K1): 17.6 µM (inactive) | GI50 (P388): 55.2 µM (inactive)

O=C(O)C1Cc2c([nH]c3ccccc23)C=N1 (stereo not given)
GI50 (P388/ADR): > 100 µM (inactive) | GI50 (P388): > 100 µM (inactive)

COc1cccc2c1C(=O)c1c(O)c3c(c(O)c1C2=O)C[C@@](O)(C(=O)CO)C[C@@H]3OC1CC(N)CC(C)O1 (stereo not given in full)
GI50 (P388/ADR): 0.367 µM (active) | GI50 (SN12K1): 0.02 µM (active) | GI50 (P388): 0.0349 µM (active)

CCOc1cc(/C=N/Nc2ccc(C(=O)O)cc2)ccc1OC(=O)c1ccccc1C
IC50 [7]: 5.07 µM (active)

CC1(C)CC23C4COC(=O)C2CCC1C3CC4=O (stereo not given)
GI50 (P388/ADR): 1.5 µM (inactive) | GI50 (SN12K1): 14.4 µM (inactive) | GI50 (P388): 2.9 µM (inactive)

COc1cc(/C=C/C(=O)Oc2ccc(NC(C)=O)cc2)ccc1C(=O)OCc1ccccc1
GI50 (P388/ADR): 0.69 µM (active) | GI50 (SN12K1): 36.5 µM (inactive) | GI50 (P388): 2.28 µM (inactive)

O=Cc1c(Br)[nH]c2ccccc12
GI50 (P388/ADR): 68.9 µM (inactive) | GI50 (SN12K1): > 100 µM (inactive) | GI50 (P388): > 55.5 µM (inactive)

C(=C\c1ccccc1)/C=N/N1CCN(Cc2ccccc2)CC1
IC50 [7]: > 50 µM (not active)

COc1cc(/C=N/NC(=O)c2ccc(Cn3cc([N+](=O)[O-])cn3)o2)cc(Br)c1O
IC50 (Large T antigen): 24 µM (active)
